TGI data for 14 compounds are collected here from PubChem BioAssay (NCI).

Among the test systems are MOLT-4 leukemia; SF-539 CNS; K-562 leukemia; SF-268 CNS; HCT-116 colon; NCI-H226 lung; SW-620 colon; RXF 393 renal; LOX IMVI melanoma; SN12C renal; U251 CNS; HOP-62 NSCLC; SNB-19 CNS; 786-0 renal; NCI/ADR-RES ovarian; HS 578T breast; DU-145 prostate; PC-3 prostate; HCC-2998 colon; T-47D breast.
Common to all, as to assay: DTP human tumour cell line panel, 48 h

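Grown in 96-well plates, cells were treated for 48 hours with each compound at five concentrations. Insufficient inhibition: endpoint recorded as highest concentration tested. TGI: total growth inhibition.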

The term TGI denotes the concentration giving total growth inhibition. Read a high TGI as lower sensitivity of the cells. Turning to `CCOC(=O)C1CCn2c(nc3c(=O)n(C)c(=O)n(C)c32)S1` (centres undefined), the concentration for total growth inhibition (TGI) in the assay on MOLT-4 leukemia, in the assay with SF-539 CNS, in the assay with K-562 leukemia, in the assay on SF-268 CNS, in the assay on HCT-116 colon and with NCI-H226 lung was over 100 µM each time. Further, the TGI in the assay on SW-620 colon, with RXF 393 renal, in the assay on LOX IMVI melanoma, with SN12C renal, with U251 CNS and with HOP-62 NSCLC was over 100 µM throughout. In the assay on SNB-19 CNS, this compound showed a concentration for total growth inhibition (TGI) of over 100 µM.
For `Cc1cc(O)c(/C=N/C(=O)NN)c(=O)o1`, the TGI in the assay on MOLT-4 leukemia, in the assay with 786-0 renal, with SF-539 CNS, in the assay on NCI/ADR-RES ovarian, with SF-268 CNS and in the assay on HS 578T breast was over 100 µM throughout. The TGI in the assay on HCT-116 colon, in the assay with DU-145 prostate, in the assay on SW-620 colon, with PC-3 prostate, in the assay with HCC-2998 colon and in the assay with RXF 393 renal was over 100 µM in each case. Further, the TGI in the assay with LOX IMVI melanoma, in the assay on SN12C renal, in the assay on U251 CNS, with HOP-62 NSCLC and with SNB-19 CNS was over 100 µM throughout.
For the compound `FC(F)(F)c1nc2cc(SSc3cc4nc(C(F)(F)F)[nH]c4cc3Cl)c(Cl)cc2[nH]1`, the TGI in the assay with MOLT-4 leukemia, in the assay with 786-0 renal, in the assay with SF-539 CNS, in the assay with K-562 leukemia, in the assay with NCI/ADR-RES ovarian and in the assay on SF-268 CNS was over 100 µM in each case. For the same compound, the TGI in the assay on HS 578T breast, in the assay on HCT-116 colon, in the assay with DU-145 prostate, with NCI-H226 lung, with SW-620 colon and in the assay with PC-3 prostate was over 100 µM in each case. Moreover, the TGI in the assay with HCC-2998 colon, with RXF 393 renal, in the assay on LOX IMVI melanoma, in the assay on SN12C renal, in the assay with U251 CNS and in the assay on HOP-62 NSCLC was over 100 µM each time. The compound further had a TGI in the assay on SNB-19 CNS of over 100 µM.
Regarding `N/C(=N\N=C/c1cc(Cl)cc(Cl)c1O)NO`, the concentration for total growth inhibition (TGI) in the assay with MOLT-4 leukemia was over 23 µM; with SF-539 CNS, 8.34 µM; with K-562 leukemia it was over 46.3 µM; in the assay with NCI/ADR-RES ovarian, 26.6 µM; with SF-268 CNS it was over 100 µM; in the assay on HCT-116 colon, 12.3 µM. Moreover, the TGI is 9.82 µM in the assay with NCI-H226 lung; 38.5 µM in the assay with SW-620 colon; 10.1 µM with HCC-2998 colon; 26.8 µM with RXF 393 renal; 6.66 µM in the assay on LOX IMVI melanoma; 33.4 µM with SN12C renal. The TGI was over 100 µM in the assay with U251 CNS, 12.5 µM in the assay on HOP-62 NSCLC and over 53.9 µM in the assay with SNB-19 CNS.
On to `COc1cc(C2c3cc4c(cc3[C@@H](Nc3ccc(N5CCOCC5)cc3)C3COC(=O)[C@H]23)OCO4)cc(OC)c1O` (some centres undefined), for which the TGI with MOLT-4 leukemia turned out to be 0.19 µM; with SF-539 CNS, 2.32 µM; with K-562 leukemia, 5.01 µM; in the assay with NCI/ADR-RES ovarian, 26.2 µM; in the assay with SF-268 CNS it was 14.2 µM; with HCT-116 colon it was 13.7 µM. In addition, the total growth inhibition concentration (TGI) in the assay with NCI-H226 lung was 2.9 µM; in the assay with SW-620 colon, 10.1 µM; with HCC-2998 colon, 4.1 µM; in the assay on RXF 393 renal, 5.86 µM; in the assay on LOX IMVI melanoma it was 4.27 µM; in the assay on SN12C renal, 2.12 µM. In addition, the TGI with U251 CNS is 1.89 µM; with HOP-62 NSCLC, 0.829 µM; with SNB-19 CNS, 2.72 µM.
For `CN1CCN(c2ccc3nc(-c4ccc5nc(-c6ccc(N(C)CCCl)cc6)[nH]c5c4)[nH]c3c2)CC1`, the TGI was 0.357 µM in the assay with MOLT-4 leukemia; 1.11 µM in the assay on 786-0 renal; 0.462 µM with SF-539 CNS; 1.16 µM with K-562 leukemia; over 100 µM in the assay with NCI/ADR-RES ovarian; 11 µM in the assay with SF-268 CNS. The concentration for total growth inhibition (TGI) in the assay on HS 578T breast came to 0.58 µM; in the assay with HCT-116 colon, 14.4 µM; in the assay with DU-145 prostate, 11.4 µM; in the assay with NCI-H226 lung, 5.2 µM; in the assay with SW-620 colon it was 1.22 µM; in the assay with PC-3 prostate, 0.383 µM. Further, the TGI in the assay on HCC-2998 colon turned out to be 1.88 µM; with RXF 393 renal it was 0.501 µM; in the assay on LOX IMVI melanoma, 0.218 µM; in the assay on SN12C renal, 1.13 µM; with U251 CNS, 1.09 µM; in the assay on HOP-62 NSCLC, 0.645 µM. Further, the total growth inhibition concentration (TGI) with SNB-19 CNS amounted to 1.01 µM.
As to `CCOC(=O)/C(=C\NC#N)c1nc2ccccc2[nH]1`, the TGI in the assay on MOLT-4 leukemia, in the assay with 786-0 renal, in the assay on SF-539 CNS, with NCI/ADR-RES ovarian, with SF-268 CNS and with HCT-116 colon was over 100 µM in each case. Further, the total growth inhibition concentration (TGI) in the assay with DU-145 prostate, in the assay on SW-620 colon, with HCC-2998 colon, with RXF 393 renal, in the assay with LOX IMVI melanoma and with SN12C renal was over 100 µM in each case. For the same compound, the TGI in the assay with HOP-62 NSCLC and in the assay on SNB-19 CNS was over 100 µM each time.
Turning to `Cc1cc(C)c(N)c(C)c1N`, the TGI with MOLT-4 leukemia, with 786-0 renal, in the assay with SF-539 CNS, with K-562 leukemia, in the assay with SF-268 CNS and in the assay on HCT-116 colon was over 100 µM throughout. Also, the TGI in the assay with SW-620 colon, with HCC-2998 colon, with RXF 393 renal, in the assay with LOX IMVI melanoma, in the assay on SN12C renal and with U251 CNS was over 100 µM throughout. In addition, the total growth inhibition concentration (TGI) with HOP-62 NSCLC and in the assay with SNB-19 CNS was over 100 µM each time.
As to `CC[S+](C)c1ccc(-c2c3nc(c(-c4ccc([S+](C)CC)cc4)c4ccc([nH]4)c(-c4ccc([S+](C)CC)cc4)c4nc(c(-c5ccc([S+](C)CC)cc5)c5ccc2[nH]5)C=C4)C=C3)cc1` (centres undefined), the TGI was 67.1 µM with MOLT-4 leukemia; over 100 µM in the assay on 786-0 renal; over 100 µM in the assay on SF-539 CNS; over 100 µM in the assay on K-562 leukemia; over 100 µM in the assay on SF-268 CNS; over 100 µM with HCT-116 colon. In addition, the TGI was over 100 µM in the assay on SW-620 colon; 63.3 µM in the assay on RXF 393 renal; 23.3 µM in the assay with LOX IMVI melanoma; 60.4 µM in the assay on SN12C renal; over 100 µM in the assay with U251 CNS; 93.5 µM in the assay on HOP-62 NSCLC. In the assay on SNB-19 CNS, the TGI is over 100 µM.
Turning to `CC[C@@]1(O)C(=O)OCc2c1cc1n(c2=O)Cc2c-1nc1ccccc1c2/C=N\NC(=O)C(N)=O`, the TGI is over 23.7 µM with MOLT-4 leukemia; 16 µM in the assay with 786-0 renal; 0.177 µM with SF-539 CNS; over 100 µM in the assay with K-562 leukemia; over 73.5 µM in the assay on NCI/ADR-RES ovarian; over 100 µM in the assay with SF-268 CNS. For the same compound, the TGI with HS 578T breast is over 100 µM; in the assay with HCT-116 colon, over 53.9 µM; in the assay with DU-145 prostate, 10.9 µM; with SW-620 colon it was over 100 µM; in the assay with PC-3 prostate, over 100 µM; in the assay with HCC-2998 colon, over 100 µM. Moreover, the TGI in the assay on RXF 393 renal was 37.5 µM; with LOX IMVI melanoma, 3.72 µM; in the assay with SN12C renal, over 100 µM; with U251 CNS, 13.6 µM; in the assay with HOP-62 NSCLC, over 45.1 µM; in the assay on SNB-19 CNS, 9.65 µM.
Consider `CCCCCCCCCCCCCCCCCCNC(=S)/N=C/c1c(O)cc(C)oc1=O`, for which the TGI with MOLT-4 leukemia was over 100 µM; in the assay with 786-0 renal it was over 100 µM; in the assay with SF-539 CNS, 62.3 µM; in the assay with T-47D breast, over 100 µM; in the assay on NCI/ADR-RES ovarian, over 100 µM; in the assay on HCT-116 colon it was over 100 µM. The TGI is over 100 µM in the assay on DU-145 prostate; over 100 µM in the assay with NCI-H226 lung; 96 µM in the assay with SW-620 colon; 69.8 µM in the assay on PC-3 prostate; 39 µM in the assay on HCC-2998 colon; over 100 µM in the assay on LOX IMVI melanoma. Further, the TGI is over 100 µM in the assay on SN12C renal, over 100 µM in the assay on U251 CNS, over 100 µM in the assay on HOP-62 NSCLC and 52.1 µM in the assay with SNB-19 CNS.
On to `O=C(NN1C(=O)C(Cl)C1c1ccc([N+](=O)[O-])cc1)c1ccccc1O` (centres undefined), for which the total growth inhibition concentration (TGI) in the assay on MOLT-4 leukemia, with SF-539 CNS, with K-562 leukemia, with SF-268 CNS, with HCT-116 colon and in the assay with SW-620 colon was over 100 µM in each case. Moreover, the TGI in the assay on RXF 393 renal, with SN12C renal, in the assay on U251 CNS, with HOP-62 NSCLC and in the assay with SNB-19 CNS was over 100 µM in each case.
`CC1=NN(C(=O)c2ccccc2)C(=O)C1N=Nc1ccccc1C(=O)O` (centres undefined): the TGI is over 100 µM in the assay on MOLT-4 leukemia; over 100 µM in the assay with SF-539 CNS; over 29.4 µM with K-562 leukemia; over 100 µM in the assay on NCI/ADR-RES ovarian; over 100 µM with SF-268 CNS; over 100 µM in the assay on HCT-116 colon. In addition, the total growth inhibition concentration (TGI) in the assay on NCI-H226 lung was over 73.7 µM; with SW-620 colon, over 100 µM; in the assay with HCC-2998 colon, over 70.6 µM; with RXF 393 renal it was over 100 µM; in the assay on LOX IMVI melanoma it was over 100 µM; with SN12C renal, over 100 µM. The TGI with U251 CNS, in the assay with HOP-62 NSCLC and in the assay with SNB-19 CNS was over 100 µM in each case.
For the compound `CCOC(=O)CCc1c(C)c2c(O)cc(O)cc2oc1=O`, the TGI with MOLT-4 leukemia, in the assay with SF-539 CNS, in the assay on K-562 leukemia, in the assay on NCI/ADR-RES ovarian, with SF-268 CNS and with HCT-116 colon was over 100 µM throughout. Also, the TGI in the assay on NCI-H226 lung, in the assay with SW-620 colon, in the assay with HCC-2998 colon, in the assay with RXF 393 renal, in the assay on LOX IMVI melanoma and in the assay on SN12C renal was over 100 µM each time. Besides, the concentration for total growth inhibition (TGI) in the assay on U251 CNS, in the assay on HOP-62 NSCLC and in the assay on SNB-19 CNS was over 100 µM in each case.
